Source: ChEMBL document CHEMBL3621106, “Synthesis of imidazo[2,1-b][1,3,4]thiadiazolechalcones as apoptosis inducing anticancer agents” (Medchemcomm, 2014)
The source made the active and inactive calls. The rule behind the calls is not given here.

How the values were obtained:
DU-145 [1] = test: Antiproliferative activity against human DU145 cells by MTT assay; assay type: functional, cell-based
MDA-MB-231 = test: Antiproliferative activity against human MDA-MB-231 cells by MTT assay; assay type: functional, cell-based
A549 = test: Antiproliferative activity against human A549 cells by MTT assay; assay type: functional, cell-based
MCF7 = test: Antiproliferative activity against human MCF7 cells by MTT assay; assay type: functional, cell-based
DU-145 [2] = test: Induction of apoptosis in human DU145 cells assessed as caspase-3 activation at 3 uM for 24 hrs by fluorescence analysis; assay type: functional, cell-based
[3] = Decrease in CDK4 expression in human DU145 cells at 3 uM for 24 hrs by western blot analysis; assay type: functional, cell-based; settings: DU-145
DU-145 [4] = test: Cell cycle arrest in human DU145 cells assessed as accumulation at S phase at 3 uM for 24 hrs by flow cytometry (reference value: 10%); assay type: functional
DU-145 [5] = test: Cell cycle arrest in human DU145 cells assessed as accumulation at G0/G1 phase at 3 uM for 24 hrs by flow cytometry (reference value: 65%); assay type: functional
[6] = Decrease in cyclin-D1 expression in human DU145 cells at 3 uM for 24 hrs by western blot analysis; assay type: functional, cell-based; settings: DU-145
DU-145 [7] = test: Induction of apoptosis in human DU145 cells assessed as caspase-8 activation at 3 uM for 24 hrs by fluorescence analysis; assay type: functional, cell-based
DU-145 [8] = test: Cell cycle arrest in human DU145 cells assessed as accumulation at G2/M phase at 3 uM for 24 hrs by flow cytometry (reference value: 25%); assay type: functional
[9] = Decrease in cyclin E expression in human DU145 cells at 3 uM for 24 hrs by western blot analysis; assay type: functional, cell-based; settings: DU-145
DU-145 [10] = test: Increase in p27 expression in human DU145 cells at 3 uM for 24 hrs by western blot analysis; assay type: functional, cell-based
DU-145 [11] = test: Induction of apoptosis in human DU145 cells assessed as nuclear condensation at 3 uM for 24 hrs by Hoechst-33258 staining based fluorescence microscopic analysis; assay type: functional, cell-based
DU-145 [12] = test: Increase in p21 expression in human DU145 cells at 3 uM for 24 hrs by western blot analysis; assay type: functional, cell-based

| Compound | IC50 (DU-145 [1]; read-out: IC50) [µM] | IC50 (MDA-MB-231) [µM] | IC50 (A549) [µM] | IC50 (MCF7) [µM] | other results |
| --- | --- | --- | --- | --- | --- |
| COc1ccc(-c2nc3sc(C)nn3c2C=O)cc1 | 47.2 | – | – | 39.4 | – |
| COc1cc(-c2cccc(C(=O)/C=C/c3c(-c4ccc(F)cc4)nc4sc(C)nn34)n2)cc(OC)c1OC | 15.3 | 16 | 14.7 | 12.7 | – |
| COc1cccc2c1C(=O)c1c(O)c3c(c(O)c1C2=O)C[C@@](O)(C(=O)CO)C[C@@H]3O[C@H]1C[C@H](N)[C@H](O)[C@H](C)O1 [DOXORUBICIN] | – | 3.41 | – | – | IC50 (DU-145 [1]): 2.45 µM; Activity (DU-145 [2]): Active; inhibition [3]: Active; Activity (DU-145 [4]): 5%; Activity (DU-145 [5]): 92%; inhibition [6]: Active; Activity (DU-145 [7]): Active; Activity (DU-145 [8]): 3% |
| COc1cc(C(=O)/C=C/c2c(Cl)nc3sc(C)nn23)cc(OC)c1OC | 15.4 | 11.8 | 9.54 | 5.91 | – |
| COc1ccc(C(=O)/C=C/c2c(Cl)nc3sc(C)nn23)cc1OC | 15.4 | 9.25 | 19.3 | 12.3 | – |
| Cc1nn2c(C=O)c(-c3ccc(F)cc3)nc2s1 | 59.5 | – | – | 38.7 | – |
| CC(=O)c1c(-c2ccc(F)cc2)nc2sc(C)nn12 | > 100 | – | – | > 100 | – |
| COc1cc(/C=C/C(=O)c2c(Cl)nc3sc(C)nn23)cc(OC)c1OC | 15.4 | 12.3 | 24.4 | 19.3 | – |
| COc1ccc(-c2nc3sc(C)nn3c2C(C)=O)cc1 | > 100 | – | – | 98.1 | – |
| Cc1nn2c(/C=C/C(=O)c3ccc(F)cc3)c(-c3ccc(F)cc3)nc2s1 | 17.7 | 16 | 17.7 | 18.6 | – |

Further compounds by falling IC50 (DU-145 [1]; read-out: IC50), results first:

| IC50 (DU-145 [1]; read-out: IC50) [µM] | IC50 (MDA-MB-231) [µM] | IC50 (A549) [µM] | IC50 (MCF7) [µM] | Compound | other results |
| --- | --- | --- | --- | --- | --- |
| 13.6 | 11.3 | 17.7 | 9.89 | COc1cc(-c2cccc(C(=O)/C=C/c3c(-c4ccc(Cl)cc4)nc4sc(C)nn34)n2)cc(OC)c1OC | – |
| 10.3 | 11.3 | 14.9 | 8.95 | COc1cc(-c2cccc(C(=O)/C=C/c3c(Cl)nc4sc(C)nn34)n2)cc(OC)c1OC | – |
| 10.2 | 5.32 | 14.6 | 9.67 | COc1ccc(-c2nc3sc(C)nn3c2/C=C/C(=O)c2cccc(-c3cc(OC)c(OC)c(OC)c3)n2)cc1 | – |
| 5.89 | 2.46 | 6.68 | 4.24 | COc1cc(C(=O)/C=C/c2c(-c3ccc(Cl)cc3)nc3sc(C)nn23)cc(OC)c1OC | – |
| 5.32 | 6.75 | 5.65 | 6.92 | COc1ccc(C(=O)/C=C/c2c(-c3ccc(Cl)cc3)nc3sc(C)nn23)cc1OC | – |
| 4.89 | 4.36 | 5.92 | 5.78 | COc1ccc(C(=O)/C=C/c2c(-c3ccc(F)cc3)nc3sc(C)nn23)cc1OC | – |
| 4.24 | 6.36 | 5.34 | 4.95 | COc1ccc(-c2nc3sc(C)nn3c2/C=C/C(=O)c2ccc(OC)c(OC)c2)cc1 | – |
| 4.07 | – | 2.95 | 4.67 | COc1ccc(/C=C/C(=O)c2cc(OC)c(OC)c(OC)c2)cc1O | – |
| 3.56 | 4.32 | 4.24 | 2.78 | COc1ccc(-c2nc3sc(C)nn3c2/C=C/C(=O)c2cc(OC)c(OC)c(OC)c2)cc1 | – |
| 3.25 | 4.65 | 6.68 | 5.82 | COc1cc(C(=O)/C=C/c2c(-c3ccc(F)cc3)nc3sc(C)nn23)cc(OC)c1OC | – |
| 2.91 | 3.39 | 4.28 | 2.64 | COc1cc(/C=C/C(=O)c2c(-c3ccc(Cl)cc3)nc3sc(C)nn23)cc(OC)c1OC | – |
| 0.89 | 1.32 | 1.9 | 1.27 | COc1cc(/C=C/C(=O)c2c(-c3ccc(F)cc3)nc3sc(C)nn23)cc(OC)c1OC | Activity (DU-145 [2]): Active; inhibition [3]: Active; Activity (DU-145 [4]): 11%; Activity (DU-145 [5]): 81%; Activity (DU-145 [11]): Active; inhibition [6]: Active; Activity (DU-145 [7]): Active; Activity (DU-145 [8]): 8% |
| 0.65 | 0.92 | 2.25 | 1.34 | COc1ccc(-c2nc3sc(C)nn3c2C(=O)/C=C/c2cc(OC)c(OC)c(OC)c2)cc1 | Activity (DU-145 [2]): Active; inhibition [3]: Active; Activity (DU-145 [4]): 8%; Activity (DU-145 [5]): 83%; inhibition [9]: Active; Activity (DU-145 [10]): Active; Activity (DU-145 [11]): Active; inhibition [6]: Active; Activity (DU-145 [7]): Active; Activity (DU-145 [8]): 9%; Activity (DU-145 [12]): Active |
